Patent US20110268807A1, “Biodegradable Microspheres and Methods of Use Thereof” (priority 2008, published 2011)

Assays:
[1] = Release of atropine from hydrogel in medium at 37° C., static conditions; format: physicochemical
From the text: FIG. 16 depicts release rate of atropine from hydrogel. […] Hydrogel for the second release test (B) was soaked in excess drug solution to reach maximum swelling. Almost no drug retention was observed; therefore, the release is approximately zero.

[2] = Atropine release per cycle (atropine content in filtrate), nanoparticles; format: physicochemical; conditions: FIG. 17B
From the text: FIGS. 17A and 17B depict atropine release. […] The first sharp decrease in atropine release would be related to the excess atropine in solution. The slow release characteristic of the second slope would be the drug release associated with nanoparticle degradation.

## CN1[C@@H]2CC[C@H]1C[C@@H](OC(=O)C(CO)c1ccccc1)C2 (stereo partly shown) [atropine]
[1]; first preliminary test (A): hydrogel absorbed all of the drug solution, medium at 37° C., static conditions
  atropine release from hydrogel: 68%
[1]; first preliminary test (A), burst effect
  time course of atropine release from hydrogel: most of which occurred during the first two hours
[1]; second release test (B): hydrogel soaked in excess drug solution to maximum swelling, almost no drug retention
  atropine release from hydrogel: approximately zero
[2]
  cumulative release percentage per cycle: all the atropine was release by the seventh cycle
